Measurements: patent publication US8722629B2, “Auristatin derivatives and use thereof” (Seattle Genetics, Inc., priority 2010, dated 2014)
Counter-ions that a name gives are not always drawn. Starred links: 1 amine or outer side, 2 acyl side, 3 side chain; linkers in the order of their positions; H or OH if unused. Non-standard residues stand in square brackets, D forms with d. Residues, ends and D or L forms follow the SMILES beside them. *: point of attachment. Dolaproine = CO[C@@H]([C@@H]1CCCN1)[C@@H](C)C(=O)O; X2 = C[C@@H](c1ccccc1)[C@H](N[*:1])C(=O)[*:2]; X1 = O=C([C@]1(N[*:1])C[C@@H]1c1ccccc1)[*:2]; Dil = CC[C@H](C)[C@H](NC)[C@@H](CC(=O)O)OC; Oxazinan2yl(1,2) = C1CCN(*)OC1; NMeV = CN[C@H](C(=O)O)C(C)C; X3 = c1ccc2c(c1)CON(*)C2

Assays:
[1] = Plasma stability in vitro, rat plasma; type: in vitro ADME; details: 37° C.; for half-life at 39.2 µg/ml: male, Wistar, rat plasma (Li heparin), Method A (HPLC)
Protocol: (§1) B-4. Determination of the Plasma Stability in vitro:
(§2) 1 mg of the test substance in question was dissolved in 0.5 ml of acetonitrile/DMSO (9:1). From this solution, 20 μl were removed and added to 1 ml of rat or human plasma at 37° C. (plasma of male Wistar rats with Li heparin from Harlan & Winkelmann or fresh human leukocyte-depleted plasma originating from a whole blood sample). From this plasma solution, which was shaken vigorously, 100 μl aliquots were removed immediately after addition of the sample (initial value as reference) and then after 5, 10, 30, 60, 120, 180 and 240 minutes and optionally after 24 hours and added to 300 μl of acetonitrile. The precipitated plasma proteins were removed by centrifugation at 5000 rpm for 10 minutes, and 30 μl of the supernatant were analysed by HPLC for its content of unmodified test substance. Quantification was via the area percentages of the corresponding peaks.
HPLC Method for Rat Plasma:
Instrument: Agilent 1200 with DAD, binary pump, autosampler, column oven and thermostat; column: Kromasil 100 C18, 250 mm×4 mm, […]; column temperature: 45° C.; mobile phase A: 5 ml of perchloric acid/1 of water, mobile phase B: acetonitrile; gradient: 0-8 min 98% A, 2% B; 8-15 min 56% A, 44% B; […] 10% A, 90% B; 20-21 min 10% A, 90% B; […] 98% A, 2% B; […] 98% A, 2% B; flow rate: 2 ml/min; UV detection: 220 nm.
(§3) The test substance was incubated in rat or human plasma at 37° C. over a period of 5 h with gentle stirring. At different points in time (0, 2, 5, 10, 20, 30, 60, 120, 180 and 300 minutes), a 100 μl aliquot was removed. Following addition of internal standard (10 μl), the proteins were precipitated by addition of 200 μl of acetonitrile and the mixture was centrifuged in an Eppendorf centrifuge for 5 minutes. After addition of 150 μl of ammonium acetate buffer pH 3 to 150 μl of the supernatant, the content of unmodified test substance was analysed by LC/MSMS.

[2] = test system: human renal cancer cell line 786-0; test: Antiproliferative effect on the 786-0 RCC cell line (MTT assay); type: cell-based; details: Homo sapiens, 786-0, 786-0 cells, incubation 48 h to 96 h
Protocol: B-1. Determination of the Antiproliferative Effect on the 786-0 RCC Cell Line:
A defined cell number of the human renal cancer cell line 786-0 was sown in a 96-well microtiter plate in complete medium (2500 or 7000 cells/well) and incubated at 37° C./5% CO2 overnight. After 18 h, the sowing medium was replaced by serum-free medium or medium with 2% FCS. Treatment was initiated by addition of the respective test substance in varying concentration (10^−5 M to […]). The chosen incubation times were from 48 h to 96 h. Proliferation was determined with the aid of the MTT assays (ATCC, Manassas, Va., USA, catalogue No. 30-1010K). After the incubation time, the MTT reagent was incubated with the cells for 4 h, and the cells were subsequently lysed by adding the detergent overnight. The dye formed was detected at 570 nm. […] The data obtained from this test are triple determinations, and at least two independent experiments were carried out.

[3] = test system: human colon carcinoma cell line HT29 wt (wild type); test: Antiproliferative effect on the HT29 wt cell line (MTT assay); type: cell-based; details: Homo sapiens, HT-29, HT29 wt cells, 10% FCS, incubation 48 h to 96 h
Protocol: B-2. Determination of the Antiproliferative Effect on the HT29 Wt Cell Line:
A defined cell number of the human colon carcinoma cell line HT29 wt (wild type) was sown in a 96-well microtiter plate in complete medium (10% FCS-RPMI) (2500 cells/well) and incubated at 37° C./5% CO2 overnight. After 18 h, the sowing medium was replaced by fresh medium with 10% FCS. Treatment was initiated by addition of the respective test substance. From the substances to be investigated, dose/activity curves in a concentration range of from 10^−5 M to 10^−14 M (1:10-dilution series) were determined. The chosen incubation times were from 48 h to 96 h. Pro-liferation was determined with the aid of the MTT assays (ATCC, Manassas, Va., USA, catalogue No. 30-1010K). After the incubation time, the MTT reagent was incubated with the cells for 4 h, and the cells were subsequently lysed by adding the detergent overnight. The dye formed was detected at 570 nm. Proliferation of cells which had not been treated with test substance, but had otherwise been treated identically, was defined as 100%. The data obtained from this test are triple determinations, and at least two independent experiments were carried out.

[4] = Plasma stability in vitro, human plasma; type: in vitro ADME
Protocol: as §1, §2
HPLC Method for Human Plasma:
Instrument: Agilent 1100 with DAD, binary pump, autosampler, column oven and thermostat;
column: Kromasil 100 C18, 250 mm×4 mm, 5 μm; column temperature: 45° C.; mobile phase A: 5 ml of perchloric acid/1 of water, mobile phase B: acetonitrile; gradient: 0-3 min 98% A, 2% B; 3-10 min 65% A, 35% B; 10-15 min 40% A, 60% B; 15-21 min 10% A, 90% B; 21-22 min 10% A, 90% B; 22-24 min 98% A, 2% B; 24-26 min 98% A, 2% B; flow rate: 2 ml/min; UV detection: 220 nm.
as §3

Structure (SMILES) | half-life at 39.2 µg/ml [1] [h] | IC50 [2] [nM] | IC50 [3] [nM] | degradation in human plasma after 24 h [4] | half-life ([1]; Method B (LC/MSMS)) [h] | t1/2 ([1]; Method A) [min] | degraded in human plasma during 24 h [4]
CC[C@H](C)[C@@H]([C@@H](CC(=O)N1CCC[C@H]1[C@H](OC)[C@@H](C)C(=O)N[C@@]1(C(=O)N2CCCCO2)C[C@@H]1c1ccccc1)OC)N(C)C(=O)[C@@H](NC(=O)[C@H](C(C)C)N(C)CCCC(=O)O)C(C)C [Example 23, N-(3-Carboxypropyl)-N-methyl-L-valyl-N-[(3R,4S,5S)-3-methoxy-1-{(2S)-2-[(1R,2R)-1-methoxy-2-methyl-3-{[(1S,2R)-1-(1,2-oxazinan-2-ylcarbonyl)-2-phenylcyclopropyl]amino}-3-oxopropyl]-pyrrolidin-1-yl}-5-methyl-1-oxoheptan-4-yl]-N-methyl-L-valinamide] | > 24 | 11 | 0.7 | – | – | – | –
CC[C@H](C)[C@@H]([C@@H](CC(=O)N1CCC[C@H]1[C@H](OC)[C@@H](C)C(=O)N[C@H](Cc1ccccc1)C(=O)N1CCCCO1)OC)N(C)C(=O)[C@@H](NC(=O)[C@@H](NC)C(C)C)C(C)C [Example 21, N-Methyl-L-valyl-N-[(3R,4S,5S)-3-methoxy-1-{(2S)-2-[(1R,2R)-1-methoxy-2-methyl-3-{[(2R)-1-(1,2-oxazinan-2-yl)-1-oxo-3-phenylpropan-2-yl]amino}-3-oxopropyl]pyrrolidin-1-yl}-5-methyl-1-oxoheptan-4-yl]-N-methyl-L-valinamide, trifluoroacetic acid salt] (H-[NMeV]V[Dil][Dolaproine][dF]-{Oxazinan2yl(1,2)}) | – | – | – | no degradation was observed | – | – | –
CC[C@H](C)[C@@H]([C@@H](CC(=O)N1CCC[C@H]1[C@H](OC)[C@@H](C)C(=O)N[C@@H](Cc1ccccc1)C(=O)N1CCCCO1)OC)N(C)C(=O)[C@@H](NC(=O)[C@@H](NC)C(C)C)C(C)C [Example 1, N-Methyl-L-valyl-N-[(3R,4S,5S)-3-methoxy-1-{(2S)-2-[(1R,2R)-1-methoxy-2-methyl-3-{[(2S)-1-(1,2-oxazinan-2-yl)-1-oxo-3-phenylpropan-2-yl]amino}-3-oxopropyl]pyrrolidin-1-yl}-5-methyl-1-oxoheptan-4-yl]-N-methyl-L-valinamide, trifluoroacetic acid salt] (H-[NMeV]V[Dil][Dolaproine]F-{Oxazinan2yl(1,2)}) | – | 4 | 0.1 | no degradation was observed | – | – | –
CC[C@H](C)[C@@H]([C@@H](CC(=O)N1CCC[C@H]1[C@H](OC)[C@@H](C)C(=O)N[C@@]1(C(=O)N2CCCCO2)C[C@@H]1c1ccccc1)OC)N(C)C(=O)[C@@H](NC(=O)[C@@H](NC)C(C)C)C(C)C [Example 17, N-Methyl-L-valyl-N-[(3R,4S,5S)-3-methoxy-1-{(2S)-2-[(1R,2R)-1-methoxy-2-methyl-3-{[(1S,2R)-1-(1,2-oxazinan-2-ylcarbonyl)-2-phenylcyclopropyl]amino}-3-oxopropyl]pyrrolidin-1-yl}-5-methyl-1-oxoheptan-4-yl]-N-methyl-L-valinamide, trifluoroacetic acid salt] (H-[NMeV]V[Dil][Dolaproine][X1]-{Oxazinan2yl(1,2)}) | > 24 | 4 | 0.5 | no degradation was observed | – | – | –
CC[C@H](C)[C@@H]([C@@H](CC(=O)N1CCC[C@H]1[C@H](OC)[C@@H](C)C(=O)N[C@@]1(C(=O)N2Cc3ccccc3CO2)C[C@@H]1c1ccccc1)OC)N(C)C(=O)[C@@H](NC(=O)[C@@H](NC)C(C)C)C(C)C [Example 18, N-Methyl-L-valyl-N-[(3R,4S,5S)-1-{(2S)-2-[(1R,2R)-3-{[(1S,2R)-1-(1,4-dihydro-3H-2,3-benzoxazin-3-ylcarbonyl)-2-phenylcyclopropyl]amino}-1-methoxy-2-methyl-3-oxopropyl]pyrrolidin-1-yl}-3-methoxy-5-methyl-1-oxoheptan-4-yl]-N-methyl-L-valinamide, trifluoroacetic acid salt] (H-[NMeV]V[Dil][Dolaproine][X1]-X3) | > 24 | – | 1.2 | – | – | – | –
CC[C@H](C)[C@@H]([C@@H](CC(=O)N1CCC[C@H]1[C@H](OC)[C@@H](C)C(=O)N[C@H](C(=O)N1CCCCO1)[C@@H](C)c1ccccc1)OC)N(C)C(=O)[C@@H](NC(=O)[C@@H](NC)C(C)C)C(C)C [Example 4, N-Methyl-L-valyl-N-[(3R,4S,5S)-3-methoxy-1-{(2S)-2-[(1R,2R)-1-methoxy-2-methyl-3-{[(2S,3S)-1-(1,2-oxazinan-2-yl)-1-oxo-3-phenylbutan-2-yl]amino}-3-oxopropyl]pyrrolidin-1-yl}-5-methyl-1-oxoheptan-4-yl]-N-methyl-L-valinamide, trifluoroacetic acid salt] (H-[NMeV]V[Dil][Dolaproine][X2]-{Oxazinan2yl(1,2)}) | – | 14 | 0.2 | – | 3 | – | –
CC[C@H](C)[C@@H]([C@@H](CC(=O)N1CCC[C@H]1[C@H](OC)[C@@H](C)C(=O)N[C@@H](Cc1ccccc1)C(=O)OC)OC)N(C)C(=O)[C@@H](NC(=O)[C@@H](NC)C(C)C)C(C)C [MMAF-OMe, Monomethylauristatin F methyl ester, reference compound] (H-[NMeV]V[Dil][Dolaproine]F-OMe) | – | – | – | – | – | < 1 | about 20%
